Patent publication US7718659B2, “Heteroarylacetamide inhibitors of factor Xa” (priority 2004, dated 2010)

Target: human factor Xa (Homo sapiens, UniProt P00742)
Assay: biochemical
Conditions: human factor Xa 3 nM, chromogenic substrate S-2222, HNPT buffer pH 7.8, room temperature; apparent Ki calculated from IC50 according to Cheng and Prusoff
Experimental: Factor Xa activity was measured spectrophotometrically in microtiter plates in a final volume of 150 μl using the following conditions: Inhibition of human factor Xa (Enzyme Research Laboratories) was tested at an enzyme concentration of 3 nM using the chromogenic substrate S-2222 (Chromogenix AB, Mölndal, Sweden) at 200 nM. The reaction kinetics of the enzyme and the substrate were linear with both time and the enzyme concentration. The inhibitors were dissolved in DMSO and tested at various concentrations up to 100 μM. The inhibitors were diluted using HNPT buffer consisting of HEPES 100 mM, NaCl 140 mM, PEG 6000 0.1% and Tween 80 0.02%, pH 7.8. […]
The velocity of the reaction was determined by the autoreader from the slope of the linear regression fit to 7 time points (1 minute). The initial velocity for each inhibitor concentration was determined by the slope of at least 4 time points in the linear phase by a linear regression fit (mOD/min^2). Apparent dissociation constants Ki were calculated according to Cheng and Prusoff [Cheng, Y. C.; Prusoff, W. H. Relationship between the inhibition constant (Ki) and the concentration of the inhibitor that causes 50 percent inhibition (IC50) of an enzyme reaction. Biochem. Pharmacol. 1973, 22, 3099-3108.] based on the IC50 and the respective Km, determined previously (Ki=IC50/(I+S/Km)). […]

Chain of human factor Xa (P00742 235-488 limits assumed): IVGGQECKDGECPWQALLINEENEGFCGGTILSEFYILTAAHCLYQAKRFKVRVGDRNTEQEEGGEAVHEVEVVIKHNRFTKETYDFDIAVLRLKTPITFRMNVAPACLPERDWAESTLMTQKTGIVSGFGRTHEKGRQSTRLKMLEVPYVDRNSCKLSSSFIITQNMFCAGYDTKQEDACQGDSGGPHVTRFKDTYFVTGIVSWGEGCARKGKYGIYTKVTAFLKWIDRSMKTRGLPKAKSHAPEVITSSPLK
Chain of human factor Xa (P00742 41-179 partner limits assumed): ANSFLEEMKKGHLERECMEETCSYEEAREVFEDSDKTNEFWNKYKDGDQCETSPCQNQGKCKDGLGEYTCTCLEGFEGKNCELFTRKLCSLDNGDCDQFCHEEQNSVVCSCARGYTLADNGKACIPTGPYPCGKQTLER

In the case of CN1CCC(N2CCN(C(=O)Cc3csc(NC(=O)c4ccc(Br)s4)n3)CC2)CC1 [Ex. 47.3, 5-bromo-thiophene-2-carboxylic acid (4-{2-[4-(1-methyl-piperidin-4-yl)-piperazin-1-yl]-2-oxo-ethyl}-thiazol-2-yl)-amide], the Ki is reported as 26 nM.
